Data reported in US8822468B2 (Novartis AG, priority 2008, dated 2014).
pIC50: −log10 of the molar value.

Target: T1, cMET receptor tyrosine kinase (GST-cMET (969-1390)) (Homo sapiens, UniProt P08581)
T1 construct: made in house
Test: EPK cMET profiling assay (LanthaScreen TR-FRET antibody based kinase phosphorylation assay)
Format: biochemical
Conditions: purified recombinant GST-cMET (969-1390), 2 μM ATP, 50 nM Fluorescein-PolyEAY, 60 minutes at room temperature; read-out: c-Met IC50
Procedure, shortened: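 Compounds tested at eight final concentrations from 10 down to 0.003 µM against affinity-purified GST-cMET (969-1390, 0.3 nM) with 2 µM ATP and 50 nM fluorescein-PolyEAY in Tris buffer with MgCl2 and MnCl2, 1 h at room temperature. After EDTA stop, phosphoproduct detected by LanthaScreen TR-FRET with Tb-PY20 antibody, end-point measurement.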

T1 sequence (P08581 969-1390): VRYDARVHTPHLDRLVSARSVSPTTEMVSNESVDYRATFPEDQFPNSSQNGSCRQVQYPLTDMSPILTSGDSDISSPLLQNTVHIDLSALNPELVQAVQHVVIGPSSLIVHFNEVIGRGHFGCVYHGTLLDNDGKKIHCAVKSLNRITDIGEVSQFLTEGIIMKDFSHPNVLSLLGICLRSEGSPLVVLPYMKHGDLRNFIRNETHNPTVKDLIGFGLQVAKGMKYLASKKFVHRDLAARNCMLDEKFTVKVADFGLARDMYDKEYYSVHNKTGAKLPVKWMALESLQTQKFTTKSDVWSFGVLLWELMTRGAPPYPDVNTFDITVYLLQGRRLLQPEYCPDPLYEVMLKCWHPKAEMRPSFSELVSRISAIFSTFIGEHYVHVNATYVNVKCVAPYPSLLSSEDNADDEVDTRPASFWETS

How did the pIC50 turn out when `CCC(C)(C)Nc1ccc2ncc(Cc3ccc4ncccc4c3)n2n1` [Example 98, (1,1-Dimethyl-propyl)-(3-quinolin-6-ylmethyl-imidazo[1,2-b]pyridazin-6-yl)-amine] was run?
Its pIC50 is 6.96.

How did the pIC50 turn out when `OCCn1cc(-c2ccc3ncc(Cc4ccc(O)cc4F)n3n2)cn1` [Example 219, 3-Fluoro-4-{6-[1-(2-hydroxy-ethyl)-1H-pyrazol-4-yl]-imidazo[1,2-b]pyridazin-3-ylmethyl}-phenol] was run?
The pIC50 was 6.92.

`Cn1cc(-c2ccc3ncc(Cc4ccc5ncc(Br)n5c4)n3n2)cn1` [Example 296, 3-(3-Bromo-imidazo[1,2-a]pyridin-6-ylmethyl)-6-(1-methyl-1H-pyrazol-4-yl)-imidazo[1,2-b]pyridazine] was tested. Which pIC50 did it give?
Its pIC50 is 7.24.

How did the pIC50 turn out when `c1cnc2ccc(Cc3cnc4ccc(Nc5ccncn5)nn34)cc2c1` [Example 131, Pyrimidin-4-yl-(3-quinolin-6-ylmethyl-imidazo[1,2-b]pyridazin-6-yl)-amine] was run?
Its pIC50 is 6.74.

How did the pIC50 turn out when `c1cnc2ccc(Cc3cnc4ccc(-n5cccn5)nn34)cc2c1` [Example 134, 6-(6-Pyrazol-1-yl-imidazo[1,2-b]pyridazin-3-ylmethyl)-quinoline] was run?
The pIC50 was 6.24.

How did the pIC50 turn out when `Cc1csc(Nc2ccc3ncc(Cc4ccc5ncccc5c4)n3n2)n1` [Example 93] was run?
Its pIC50 is 6.41.

With `Cn1cc(-c2ccc3ncc(Cc4cc5cccnc5cc4C(F)(F)F)n3n2)cn1` [Example 169, 6-[6-(1-Methyl-1H-pyrazol-4-yl)-imidazo[1,2-b]pyridazin-3-ylmethyl]-7-trifluoromethyl-quinoline] as the molecule, how does the pIC50 read?
Its pIC50 is 6.40.

With `Cn1cnc2ccc(Cc3cnc4ccc(-c5cnn(CCO)c5)nn34)cc21` [Example 217, 2-{4-[3-(3-Methyl-3H-benzoimidazol-5-ylmethyl)-imidazo[1,2-b]pyridazin-6-yl]-pyrazol-1-yl}-ethanol] as the molecule, how does the pIC50 read?
Its pIC50 is 7.08.

With `Cn1cc(-c2ccc3ncc(C(F)(F)c4ccc5ncccc5c4)n3n2)cn1` [Example 6, 6-{Difluoro-[6-(1-methyl-1H-pyrazol-4-yl)-imidazo[1,2-b]pyridazin-3-yl]-methyl}-quinoline] as the molecule, how does the pIC50 read?
The pIC50 was 7.85.

With `O=C1CN(c2ccc3ncc(Cc4ccc5ncccc5c4)n3n2)CCN1` [Example 102, 4-(3-Quinolin-6-ylmethyl-imidazo[1,2-b]pyridazin-6-yl)-piperazin-2-one] as the molecule, how does the pIC50 read?
The pIC50 was 7.42.

With `Fc1cc2ncccc2c(F)c1Cc1cnc2ccc(-c3cn[nH]c3)nn12` [Example 263, 5,7-Difluoro-6-[6-(1H-pyrazol-4-yl)-imidazo[1,2-b]pyridazin-3-ylmethyl]-quinoline] as the molecule, how does the pIC50 read?
Its pIC50 is 8.00.

How did the pIC50 turn out when `CN1CCC(n2cc(-c3ccc4ncc(Cc5ccc6ncccc6c5Cl)n4n3)cn2)CC1` [Example 228, 5-Chloro-6-{6-[1-(1-methyl-piperidin-4-yl)-1H-pyrazol-4-yl]-imidazo[1,2-b]pyridazin-3-ylmethyl}-quinoline] was run?
Its pIC50 is 7.00.

`Cn1ncc2cc(Cc3cnc4ccc(-c5cnn(CCO)c5)nn34)c(F)cc21` [Example 281, 2-{4-[3-(6-Fluoro-1-methyl-1H-indazol-5-ylmethyl)-imidazo[1,2-b]pyridazin-6-yl]-pyrazol-1-yl}-ethanol] was tested. Which pIC50 did it give?
Its pIC50 is 7.11.

With `c1cnc2ccc(Cc3cnc4ccc(-c5ccc6nonc6c5)nn34)cc2c1` [Example 52, 6-(6-Benzo[1,2,5]oxadiazol-5-yl-imidazo[1,2-b]pyridazin-3-ylmethyl)-quinoline] as the molecule, how does the pIC50 read?
Its pIC50 is 6.62.

With `OCCn1cc(-c2ccc3ncc(Cc4ccc(O)cc4)n3n2)cn1` [Example 220, 4-{6-[1-(2-Hydroxy-ethyl)-1H-pyrazol-4-yl]-imidazo[1,2-b]pyridazin-3-ylmethyl}-phenol] as the molecule, how does the pIC50 read?
Its pIC50 is 6.48.

How did the pIC50 turn out when `c1ccc(-c2cc(-c3ccc4ncc(Cc5ccc6ncccc6c5)n4n3)on2)cc1` [Example 34, 6-[6-(3-Phenyl-isoxazol-5-yl)-imidazo[1,2-b]pyridazin-3-ylmethyl]-quinoline] was run?
The pIC50 was 6.64.

`CN1CC(n2cc(-c3ccc4ncc(Cc5cc6cccnc6cc5F)n4n3)cn2)C1` [Example 146, 7-Fluoro-6-{6-[1-(1-methyl-azetidin-3-yl)-1H-pyrazol-4-yl]-imidazo[1,2-b]pyridazin-3-ylmethyl}-quinoline] was tested. Which pIC50 did it give?
The pIC50 was 7.17.

With `O=C1CCN(c2ccc3ncc(Cc4ccc5ncccc5c4)n3n2)CCN1` [Example 109, 1-(3-Quinolin-6-ylmethyl-imidazo[1,2-b]pyridazin-6-yl)-[1,4]diazepan-5-one] as the molecule, how does the pIC50 read?
Its pIC50 is 7.21.

How did the pIC50 turn out when `CC(c1cc2cccnc2cc1F)c1cnc2ccc(-c3cnn(C4CCNCC4)c3)nn12` (racemic) [Example 258, (rac)-7-Fluoro-6-{1-[6-(1-piperidin-4-yl-1H-pyrazol-4-yl)-imidazo[1,2-b]pyridazin-3-yl]-ethyl}-quinoline] was run?
Its pIC50 is 7.37.

With `Cn1cc(-c2ccc3ncc(Cc4ccc5ncccc5c4Cl)n3n2)cn1` [Example 172, 5-Chloro-6-[6-(1-methyl-1H-pyrazol-4-yl)-imidazo[1,2-b]pyridazin-3-ylmethyl]-quinoline] as the molecule, how does the pIC50 read?
Its pIC50 is 8.00.

How did the pIC50 turn out when `F[C@H]1CCN(c2ccc3ncc(Cc4ccc5ncccc5c4)n3n2)C1` [Example 125, 6-[6-((S)-3-Fluoro-pyrrolidin-1-yl)-imidazo[1,2-b]pyridazin-3-ylmethyl]-quinoline] was run?
Its pIC50 is 6.89.

How did the pIC50 turn out when `Cn1cc(-c2ccc3ncc(Cc4c[nH]c5ncccc45)n3n2)cn1` [Example 199, 6-(1-Methyl-1H-pyrazol-4-yl)-3-(1H-pyrrolo[2,3-b]pyridin-3-ylmethyl)-imidazo[1,2-b]pyridazine] was run?
Its pIC50 is 7.45.

With `Cn1cc(-c2ccc3ncc(Cc4cc5cn[nH]c5cc4F)n3n2)cn1` [Example 167, 3-(6-Fluoro-1H-indazol-5-ylmethyl)-6-(1-methyl-1H-pyrazol-4-yl)-imidazo[1,2-b]pyridazine] as the molecule, how does the pIC50 read?
The pIC50 was 8.22.

`Cn1cc(-c2ccc3ncc(C(O)c4ccc5nccn5c4)n3n2)cn1` (racemic) [Example 9, (rac)-Imidazo[1,2-a]pyridin-6-yl-[6-(1-methyl-1H-pyrazol-4-yl)-imidazo[1,2-b]pyridazin-3-yl]-methanol] was tested. Which pIC50 did it give?
Its pIC50 is 6.77.

`CN(C(=O)OC(C)(C)C)C1CCN(c2ccc3ncc(Cc4ccc5ncccc5c4)n3n2)C1` (racemic) [Example 87, Methyl-[1-(3-quinolin-6-ylmethyl-imidazo[1,2-b]pyridazin-6-yl)-pyrrolidin-3-yl]-carbamic acid tert-butyl ester] was tested. Which pIC50 did it give?
Its pIC50 is 6.43.

`Cn1cc(-c2ccc3ncc([C@](C)(O)c4cc5cccnc5cc4F)n3n2)cn1` [Example 175, (R)-1-(7-Fluoro-quinolin-6-yl)-1-[6-(1-methyl-1H-pyrazol-4-yl)-imidazo[1,2-b]pyridazin-3-yl]-ethanol] was tested. Which pIC50 did it give?
Its pIC50 is 7.42.

`c1cnc2ccc(Cc3cnc4ccc(NCC5CCCO5)nn34)cc2c1` (stereo not shown) [Example 80, (3-Quinolin-6-ylmethyl-imidazo[1,2-b]pyridazin-6-yl)-(tetrahydro-furan-2-ylmethyl)-amine] was tested. Which pIC50 did it give?
The pIC50 was 7.42.

How did the pIC50 turn out when `C[C@@H](c1ccc2nccn2c1)c1cnc2ccc(-c3cnn(C)c3)nn12` [Example 295, 3-((S)-1-Imidazo[1,2-a]pyridin-6-yl-ethyl)-6-(1-methyl-1H-pyrazol-4-yl)-imidazo[1,2-b]pyridazine] was run?
The pIC50 was 7.72.

With `N#Cc1cc(-c2ccc3ncc(Cc4ccc5ncccc5c4)n3n2)ccc1F` [Example 67, 2-Fluoro-5-(3-quinolin-6-ylmethyl-imidazo[1,2-b]pyridazin-6-yl)-benzonitrile] as the molecule, how does the pIC50 read?
Its pIC50 is 6.80.

With `Cn1cc(-c2ccc3ncc([C@H](O)c4ccc5ncccc5c4)n3n2)cn1` [Example 151, (R)-[6-(1-Methyl-1H-pyrazol-4-yl)-imidazo[1,2-b]pyridazin-3-yl]-quinolin-6-yl-methanol] as the molecule, how does the pIC50 read?
The pIC50 was 7.19.

`Fc1cc2ncccc2cc1Cc1cnc2ccc(-c3cn[nH]c3)nn12` [Example 251, 7-Fluoro-6-[6-(1H-pyrazol-4-yl)-imidazo[1,2-b]pyridazin-3-ylmethyl]-quinoline] was tested. Which pIC50 did it give?
Its pIC50 is 7.68.

`CC(Nc1ccc2ncc(Cc3ccc4ncccc4c3)n2n1)c1ccccc1` (stereo not shown) [Example 103, (1-Phenyl-ethyl)-(3-quinolin-6-ylmethyl-imidazo[1,2-b]pyridazin-6-yl)-amine] was tested. Which pIC50 did it give?
The pIC50 was 6.26.

How did the pIC50 turn out when `Cn1cc(-c2ccc3ncc(C(O)c4ccc5ncn(C)c5c4)n3n2)cn1` (racemic) [Example 229, (rac)-(3-Methyl-3H-benzoimidazol-5-yl)-[6-(1-methyl-1H-pyrazol-4-yl)-imidazo[1,2-b]pyridazin-3-yl]-methanol] was run?
The pIC50 was 6.28.

How did the pIC50 turn out when `CSc1ccc(-c2ccc3ncc(Cc4ccc5ncccc5c4)n3n2)cc1` [Example 23, 6-[6-(4-Methylsulfanyl-phenyl)-imidazo[1,2-b]pyridazin-3-ylmethyl]-quinoline] was run?
The pIC50 was 6.90.

With `c1cnc2ccc(Cc3cnc4ccc(-c5cnn(C6CCNCC6)c5)nn34)cc2c1` [Example 7, 6-[6-(1-piperidin-4-yl-1H-pyrazol-4-yl)-imidazo[1,2-b]pyridazin-3-ylmethyl]-quinoline] as the molecule, how does the pIC50 read?
Its pIC50 is 7.30.

With `CC(C)Nc1ccc2ncc(Cc3ccc4ncccc4c3)n2n1` [Example 91, Isopropyl-(3-quinolin-6-ylmethyl-imidazo[1,2-b]pyridazin-6-yl)-amine] as the molecule, how does the pIC50 read?
The pIC50 was 7.54.

How did the pIC50 turn out when `Cc1nccn1-c1ccc2ncc(Cc3ccc4ncccc4c3)n2n1` [Example 116, 6-[6-(2-Methyl-imidazol-1-yl)-imidazo[1,2-b]pyridazin-3-ylmethyl]-quinoline] was run?
Its pIC50 is 6.01.

`C[C@H](c1ccc2ncccc2c1)c1cnc2ccc(-c3cnn(C)c3)nn12` [Example 158, 6-{(R)-1-[6-(1-Methyl-1H-pyrazol-4-yl)-imidazo[1,2-b]pyridazin-3-yl]-ethyl}-quinoline] was tested. Which pIC50 did it give?
The pIC50 was 6.27.

`CN(c1cccc(Cl)c1)c1ccc2ncc(Cc3ccc4ncccc4c3)n2n1` [Example 138, (3-Chloro-phenyl)-methyl-(3-quinolin-6-ylmethyl-imidazo[1,2-b]pyridazin-6-yl)-amine] was tested. Which pIC50 did it give?
Its pIC50 is 6.02.

`CC(C)CNc1ccc2ncc(Cc3ccc4ncccc4c3)n2n1` [Example 79, Isobutyl-(3-quinolin-6-ylmethyl-imidazo[1,2-b]pyridazin-6-yl)-amine] was tested. Which pIC50 did it give?
The pIC50 was 7.36.
